This is an account of results in US20220030896A2, “CHOLINE ESTER-CONTAINING COMPOSITION FOR ORAL INGESTION” (Shinshu University, priority 2016, published 2022).

Data set [1] concerns spontaneously hypertensive rats (SHR). The conditions noted are these: purified compound, SHRs, single oral administration; cited from earlier work.
The test system is the same in data set [2]. The data set can be described thus: Single oral administration test in spontaneously hypertensive rats (tail cuff blood pressure, heart rate). The conditions noted are these: SHRs after 12 hours of fasting. It is filed as in vivo, rat. The protocol:
The lyophilized eggplant powder was prepared by washing a 'Senshu' water eggplant from […], Osaka-fu with water, by sterilizing the eggplant with hypochlorous acid, and by finely grinding the edible part after lyophilisation. […] In order to compare the blood pressure-lowering effect, an administration test of an AcCh standard sample of 1.00×10^-9 mol/kg was performed in the same manner and the systolic blood pressure was measured. To a control group only water was administered under the same conditions. 0, 3, 6, 9, and 24 hours after the oral administration, systolic blood pressure, diastolic blood pressure and heart rate were measured by the tail cuff method using the non-invasive blood pressure measuring instrument Softron BP-98A (Softron Co., Ltd., Tokyo).

The next data set concerns humans. Kind of data set: Extrapolation of effective AcCh dose from SHR to humans by Kleiber's law. The arrangement: species or system human. An excerpt: (§1) This AcCh dose at which a blood pressure-lowering effect occurred in SHRs in normal condition upon oral ingestion was extrapolated to humans using Kleiber's law (Non-Patent Document 22). According to Kleiber's law, the mammalian metabolic rate is assumed to be proportional to the ¾ power of body weight, assuming the SHR weight to be 370 g and human weight to be 60 kg, the effective dose for humans is estimated to be 45.4 times the effective dose for SHRs.
(§2) When this AcCh dose was extrapolated to humans using Kleiber's law (Non-Patent Document 22), the upper limit of the daily human effective dose was 3.36×10^−6 mol (491 μg). Therefore, the daily effective dose for humans with high blood pressure having genetic characteristics such as SHRs was estimated to be in the range of 5 to 500 μg.

The nature of data set [3]: Change over time of AcCh amount in aqueous pH solutions (standard sample). To be noted: pH 4.1 to pH 3.1, after 12 days. Format: physicochemical. As for the experimental part: A method for stabilizing choline esters in eggplants was examined. […] Therefore, firstly, the concentration change over time of an AcCh standard sample was examined under neutral and acidic conditions. The neutral solution (pH 7.0) was a phosphate buffer solution, and the acidic solutions (pH 4.1, pH 3.6, pH 3.1, pH 2.6) were prepared by adding acetic acid; the pH solutions with an AcCh concentration of 1.9 mg/mL were allowed to remain at ambient temperature (23 to 25° C.) for 0, 3, 6, 12 days, and then the AcCh content was quantified.

Data set [4] has as its system spontaneously hypertensive rats (SHR). Kind of data set: Repeated oral administration test of AcCh in SHR that did not fast. Format: in vivo, rat. The conditions noted are these: in SHRs, weight assumed 370 g.
Text: as §1, §2

Data set [5] concerns thoracic aorta ring specimens of SHR. Kind of data set: Vascular isometric tension measurement test (phenylephrine-constricted thoracic aorta rings). The arrangement: species or system rat. To be noted: standard sample. As for the experimental part: The ground eggplant samples used for the experiment were prepared as follows. […] 14-week-old male SHRs (body weight 320 to 346 g) were put to death by laparotomy and exsanguination under ether anaesthesia, and the thoracic aorta was quickly removed. The isolated aorta was immersed in physiological saline and the blood was thoroughly rinsed off, and then the connective tissue and adipose tissue attached to the blood vessel were removed in a Krebs-Henseleit solution to prepare a ring specimen with a width of about 2 to 3 mm. The resulting ring specimens were attached inside an organ bus of an isometric tension test device (UFER UC-05[…]., Kyoto) filled with Krebs-Henseleit solution of 37° C. (119 mM NaCl/4.7 mM KCl/1.1 mM KH2PO4/1.2 mM MgSO4/25 mM NaHCO3, pH 7.4) in which a mixed gas of 95% O2-5% CO2 was aerated, then a static tension of 1.0 g was applied and the ring specimens were stabilized for 60 minutes. […] The change in tension was measured and recorded by using a transducer (UFER UM-20, Iwashiya Kishimoto Ika Sangyo Co., Ltd.), the dilation rate (%) was calculated by equation (1) hereinafter, and the mean value±standard error (Mean±S. E.) was determined by repeating the test results three times. […]

Turning to `CCCC(=O)OCC[N+](C)(C)C` [BuCh, butyrylcholine], the blood pressure-lowering effect result in data set [1] is recorded as “blood pressure-lowering effect is shown”. For the compound `CC(=O)OCC[N+](C)(C)C` [AcCh, acetylcholine], the “effective daily dose of AcCh” value in data set [2] is 1e-09 mol/kg. In addition, in the data set on humans, the “lower limit of the daily effective dose for humans” value was 3.36e-08 mol and the “upper limit of the daily human effective dose” value was 3.36e-06 mol. For the same compound, the AcCh remaining in data set [3] is listed as at least 97%. Also, in data set [4], the “effective daily intake of AcCh causing a blood pressure lowering effect” value worked out at 3.7e-09 mol. Consider `NCCCC(=O)O` [γ-aminobutyric acid (GABA), γ-aminobutyric acid], for which the “effect on blood vessels” value in data set [5] (4.8 μg/mL) was “no effect on blood vessels was observed”. Consider `O=C(/C=C/c1ccc(O)c(O)c1)O[C@@H]1C[C@](O)(C(=O)O)C[C@@H](O)[C@H]1O` [Chlorogenic acid], for which the “effect on blood vessels” value in data set [5] (11 μg/mL) is “no effect on blood vessels was observed”.

As for `CCC(=O)OCC[N+](C)(C)C` [PrCh, propionylcholine], in data set [1], the blood pressure-lowering effect result is “blood pressure-lowering effect is shown”.
